Data reported in patent US7638639B2, “Substituted pyrrolidine and related compounds” (Theravance, Inc., priority 2003, dated 2009).
pKi: −log10 of the molar value.

Biological target: T1, hM2 muscarinic receptor subtype (Homo sapiens, UniProt P08172)
T1 construct: expressed in transfected cells
T1 sequence (P08172 1-466): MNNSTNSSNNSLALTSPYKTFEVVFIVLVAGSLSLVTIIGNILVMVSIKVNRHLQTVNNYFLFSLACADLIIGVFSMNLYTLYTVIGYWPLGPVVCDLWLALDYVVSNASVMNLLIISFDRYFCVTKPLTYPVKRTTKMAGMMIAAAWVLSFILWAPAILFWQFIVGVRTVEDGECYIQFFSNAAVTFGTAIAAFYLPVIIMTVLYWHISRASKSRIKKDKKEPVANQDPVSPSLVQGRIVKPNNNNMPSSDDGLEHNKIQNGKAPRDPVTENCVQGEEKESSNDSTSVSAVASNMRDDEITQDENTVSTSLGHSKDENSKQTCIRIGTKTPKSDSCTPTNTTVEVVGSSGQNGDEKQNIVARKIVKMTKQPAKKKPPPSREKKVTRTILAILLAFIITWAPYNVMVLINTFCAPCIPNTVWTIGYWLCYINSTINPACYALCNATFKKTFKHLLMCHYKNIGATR
Assay: Radioligand binding assay ([3H]-NMS displacement), hM2
Method: A. Membrane Preparation from Cells Expressing hM1, hM2, hM3 and hM4 Muscarinic Receptor Subtypes
CHO (Chinese hamster ovary) cell lines stably expressing cloned human hM1, hM2, hM3 and hM4 muscarinic receptor subtypes, respectively, were grown to near confluency in medium consisting of HAM's F-12 supplemented with 10% FBS (Fetal Bovine Serum) and 250 μg/mL Geneticin. The cells were grown in a 5% CO2, 37° C. incubator and lifted with 2 mm EDTA in dPBS. Cells were collected by 5 minute centrifugation at 650×g, and cell pellets were either stored frozen at −80° C. or membranes were prepared immediately. For membrane preparation, cell pellets were resuspended in lysis buffer and homogenized with a Polytron PT-2100 tissue disrupter (Kinematica AG; 20 seconds×2 bursts). Crude membranes were centrifuged at 40,000×g for 15 minutes at 4° C. The membrane pellet was then resuspended with resuspension buffer and homogenized again with the Polytron tissue disrupter. The protein concentration of the membrane suspension was determined by the method described in Lowry, O. et al., 1951, […]: 193, 265. All membranes were stored frozen in aliquots at −80° C. or used immediately. Aliquots of prepared hM5 receptor membranes were purchased directly from Perkin Elmer and stored at −80° C. until use.
B. Radioligand Binding Assay on Muscarinic Receptor Subtypes hM1, hM2, hM3, hM4 and hM5
Radioligand binding assays were performed in 96-well microtiter plates in a total assay volume of 100 μL. CHO cell membranes stably expressing either the hM1, hM2, hM3, hM4 or hM5 muscarinic subtype were diluted in assay buffer to the following specific target protein concentrations (μg/well): 10 μg for hM1, 10-15 μg for hM2, 10-20 μg for hM3, 10-20 μg for hM4, and 10-12 μg for hM5. The membranes were briefly homogenized using a Polytron tissue disruptor (10 seconds) prior to assay plate addition. Saturation binding studies for determining KD values of the radioligand were performed using L-[N-methyl-3H]scopolamine methyl chloride ([^3H]-NMS) (TRK666, 84.0 Ci/mmol, Amersham Pharmacia Biotech, Buckinghamshire, England) at concentrations ranging from 0.001 nM to 20 nM. Displacement assays for determination of Ki values of test compounds were performed with [^3H]-NMS at 1 nM and eleven different test compound concentrations. The test compounds were initially dissolved to a concentration of 400 μM in dilution buffer and then serially diluted 5× with dilution buffer to final concentrations ranging from […] to […]. The addition order and volumes to the assay plates were as follows: 25 μL radioligand, 25 μL diluted test compound, and 50 μL membranes. Assay plates were incubated for 60 minutes at 37° C. Binding reactions were terminated by rapid filtration over GF/B glass fiber filter plates (PerkinElmer Inc., Wellesley, Mass.) pre-treated in 1% BSA. Filter plates were rinsed three times with wash buffer (10 mm HEPES) to remove unbound radioactivity. Plates were then air dried, and 50 μL Microscint-20 liquid scintillation fluid (PerkinElmer Inc., Wellesley, Mass.) was added to each well. The plates were then counted in a PerkinElmer Topcount liquid scintillation counter (PerkinElmer Inc., Wellesley, Mass.). Binding data were analyzed by nonlinear regression analysis with the GraphPad Prism Software package (GraphPad Software, Inc., San Diego, Calif.) using the one-site competition model. Ki values for test compounds were calculated from observed IC50 values and the KD value of the radioligand using the Cheng-Prusoff equation (Cheng Y; Prusoff W H. (1973) Biochemical Pharmacology, 22(23):3099-108). Ki values were converted to pKi values to determine the geometric mean and 95% confidence intervals. These summary statistics were then converted back to Ki values for data reporting.

For `CNCCCCCCCCN1CC[C@@H](C(C(N)=O)(c2ccccc2)c2ccccc2)C1` [Example 1, 2-[(S)-1-(8-Methylaminooctyl)pyrrolidin-3-yl]-2,2-diphenylacetamide], the pKi (CHO cell membranes, [3H]-NMS 1 nM, read-out: hM2 binding affinity (Ki)) was 8.42 and the “Δ hM2: change in binding affinity relative to compound of the invention” value (ratio of hM2 Ki values) was “×4.7”.
